In PMC6979384, “Characterization of the plant homeodomain (PHD) reader family for their histone tail interactions” (Epigenetics & Chromatin, 2020):

Tests used:
Assay in all cases: Histone peptide microarray
Assay type in all cases: binding, human
AIRE (PP) = details: total n = 4; for Array Heatmap signal, AIRE (PP): sheet "Array Heatmap", GST-tagged reader, histone peptide array
Procedure, shortened: (§1)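 Purified PHD finger domains fused to GST are screened against 293 synthetic histone peptides bearing one or several post-translational modifications. The protein is used at 0.5 μM, and the signal from four replicate arrays is averaged, with standard deviation given.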

BAZ2B = details: total n = 4; for Array Heatmap signal, BAZ2B: sheet "Array Heatmap", GST-tagged reader, histone peptide array
Procedure, shortened: as §1

BPTF (PB) = details: total n = 4; for Array Heatmap signal, BPTF (PB): sheet "Array Heatmap", GST-tagged reader, histone peptide array
Procedure, shortened: as §1

CHD4 (PPCC) = details: total n = 4; for Array Heatmap signal, CHD4 (PPCC): sheet "Array Heatmap", GST-tagged reader, histone peptide array
Procedure, shortened: as §1

CHD5 (PCC) = details: total n = 4; for Array Heatmap signal, CHD5 (PCC): sheet "Array Heatmap", GST-tagged reader, histone peptide array
Procedure, shortened: as §1

CHD5 (PPCC) = details: total n = 4; for Array Heatmap signal, CHD5 (PPCC): sheet "Array Heatmap", GST-tagged reader, histone peptide array
Procedure, shortened: as §1

DIDO1 = details: total n = 4; for Array Heatmap signal, DIDO1: sheet "Array Heatmap", GST-tagged reader, histone peptide array
Procedure, shortened: as §1

DPF2 (PPC2W2) = details: total n = 4; for Array Heatmap signal, DPF2 (PPC2W2): sheet "Array Heatmap", GST-tagged reader, histone peptide array
Procedure, shortened: as §1

ING1 = details: total n = 4; for Array Heatmap signal, ING1: sheet "Array Heatmap", GST-tagged reader, histone peptide array
Procedure, shortened: as §1

ING2 = details: total n = 4; for Array Heatmap signal, ING2: sheet "Array Heatmap", GST-tagged reader, histone peptide array
Procedure, shortened: as §1

ING3 = details: total n = 4; for Array Heatmap signal, ING3: sheet "Array Heatmap", GST-tagged reader, histone peptide array
Procedure, shortened: as §1

ING4 = details: total n = 4; for Array Heatmap signal, ING4: sheet "Array Heatmap", GST-tagged reader, histone peptide array
Procedure, shortened: as §1

ING5 = details: total n = 4; for Array Heatmap signal, ING5: sheet "Array Heatmap", GST-tagged reader, histone peptide array
Procedure, shortened: as §1

KDM4C (TTP) = details: total n = 4; for Array Heatmap signal, KDM4C (TTP): sheet "Array Heatmap", GST-tagged reader, histone peptide array
Procedure, shortened: as §1

KDM5A (1) = details: total n = 4; for Array Heatmap signal, KDM5A (1): sheet "Array Heatmap", GST-tagged reader, histone peptide array
Procedure, shortened: as §1

KDM5A (3) = details: total n = 4; for Array Heatmap signal, KDM5A (3): sheet "Array Heatmap", GST-tagged reader, histone peptide array
Procedure, shortened: as §1

KDM5B (1) = details: total n = 4; for Array Heatmap signal, KDM5B (1): sheet "Array Heatmap", GST-tagged reader, histone peptide array
Procedure, shortened: as §1

KDM5B (3) = details: total n = 4; for Array Heatmap signal, KDM5B (3): sheet "Array Heatmap", GST-tagged reader, histone peptide array
Procedure, shortened: as §1

KDM7A = details: total n = 4; for Array Heatmap signal, KDM7A: sheet "Array Heatmap", GST-tagged reader, histone peptide array
Procedure, shortened: as §1

MLL5 = details: total n = 4; for Array Heatmap signal, MLL5: sheet "Array Heatmap", GST-tagged reader, histone peptide array
Procedure, shortened: as §1

MORC3 (CW) = details: total n = 4; for Array Heatmap signal, MORC3 (CW): sheet "Array Heatmap", GST-tagged reader, histone peptide array
Procedure, shortened: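 A peptide microarray holding 293 synthetic histone peptides with individual or combinatorial modifications was probed with each GST-PHD protein at 0.5 μM. Values represent mean intensity (±SD) from four replicates.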

PHF13 = details: total n = 4; for Array Heatmap signal, PHF13: sheet "Array Heatmap", GST-tagged reader, histone peptide array
Procedure, shortened: as §1

PHF21A = details: total n = 4; for Array Heatmap signal, PHF21A: sheet "Array Heatmap", GST-tagged reader, histone peptide array
Procedure, shortened: as §1

PHF23 = details: total n = 4; for Array Heatmap signal, PHF23: sheet "Array Heatmap", GST-tagged reader, histone peptide array
Procedure, shortened: as §1

PHF2 = details: total n = 4; for Array Heatmap signal, PHF2: sheet "Array Heatmap", GST-tagged reader, histone peptide array
Procedure, shortened: as §1

PHF8 = details: total n = 4; for Array Heatmap signal, PHF8: sheet "Array Heatmap", GST-tagged reader, histone peptide array
Procedure, shortened: as §1

PHRF1 (RP) = details: total n = 4; for Array Heatmap signal, PHRF1 (RP): sheet "Array Heatmap", GST-tagged reader, histone peptide array
Procedure, shortened: as §1

RAG2 = details: total n = 4; for Array Heatmap signal, RAG2: sheet "Array Heatmap", GST-tagged reader, histone peptide array
Procedure, shortened: as §1

SP140L = details: total n = 4; for Array Heatmap signal, SP140L: sheet "Array Heatmap", GST-tagged reader, histone peptide array
Procedure, shortened: as §1

TAF3 = details: total n = 4; for Array Heatmap signal, TAF3: sheet "Array Heatmap", GST-tagged reader, histone peptide array
Procedure, shortened: as §1

TRIM66 (PB) = details: total n = 4; for Array Heatmap signal, TRIM66 (PB): sheet "Array Heatmap", GST-tagged reader, histone peptide array
Procedure, shortened: as §1

H3K14ac + K18ac: H3 1-20
Array Heatmap signal (histone peptide microarray) (AIRE (PP); GST-tagged AIRE (PP), sheet Array Heatmap, each array performed twice): 1
Array Heatmap signal (histone peptide microarray) (BAZ2B; GST-tagged BAZ2B, sheet Array Heatmap, each array performed twice): 0.8123
Array Heatmap signal (histone peptide microarray) (BPTF (PB); GST-tagged BPTF (PB = PHD + Bromodomain), sheet Array Heatmap, each array performed twice): 0.357
Array Heatmap signal (histone peptide microarray) (CHD4 (PPCC); GST-tagged CHD4 (PPCC = Dual PHD + Dual Chromodomain), sheet Array Heatmap, each array performed twice): 0.581
Array Heatmap signal (histone peptide microarray) (CHD5 (PCC); GST-tagged CHD5 (PCC = PHD + Dual Chromodomain), sheet Array Heatmap, each array performed twice): 0.8723
Array Heatmap signal (histone peptide microarray) (CHD5 (PPCC); GST-tagged CHD5 (PPCC = Dual PHD + Dual Chromodomain), sheet Array Heatmap, each array performed twice): 0.5768
Array Heatmap signal (histone peptide microarray) (DIDO1; GST-tagged DIDO1, sheet Array Heatmap, each array performed twice): 0.658
Array Heatmap signal (histone peptide microarray) (DPF2 (PPC2W2); GST-tagged DPF2 (PPC2W2 = Dual PHD + C2W2-type Zn-finger), sheet Array Heatmap, each array performed twice): 0.9185
Array Heatmap signal (histone peptide microarray) (ING1; GST-tagged ING1, sheet Array Heatmap, each array performed twice): 0.5141
Array Heatmap signal (histone peptide microarray) (ING2; GST-tagged ING2, sheet Array Heatmap, each array performed twice): 0.6014
Array Heatmap signal (histone peptide microarray) (ING3; GST-tagged ING3, sheet Array Heatmap, each array performed twice): 0.4502
Array Heatmap signal (histone peptide microarray) (ING4; GST-tagged ING4, sheet Array Heatmap, each array performed twice): 0.4542
Array Heatmap signal (histone peptide microarray) (ING5; GST-tagged ING5, sheet Array Heatmap, each array performed twice): 0.355
Array Heatmap signal (histone peptide microarray) (KDM4C (TTP); GST-tagged KDM4C (TTP = Tandem Tudor domain + PHD), sheet Array Heatmap, each array performed twice): 0.5291
Array Heatmap signal (histone peptide microarray) (KDM5A (1); GST-tagged KDM5A (1), sheet Array Heatmap, each array performed twice): 0.555
Array Heatmap signal (histone peptide microarray) (KDM5A (3); GST-tagged KDM5A (3), sheet Array Heatmap, each array performed twice): 0.6717
Array Heatmap signal (histone peptide microarray) (KDM5B (1); GST-tagged KDM5B (1), sheet Array Heatmap, each array performed twice): 0.7675
Array Heatmap signal (histone peptide microarray) (KDM5B (3); GST-tagged KDM5B (3), sheet Array Heatmap, each array performed twice): 0.6502
Array Heatmap signal (histone peptide microarray) (KDM7A; GST-tagged KDM7A, sheet Array Heatmap, each array performed twice): 0.4239
Array Heatmap signal (histone peptide microarray) (MLL5; GST-tagged MLL5, sheet Array Heatmap, each array performed twice): 0.5196
Array Heatmap signal (histone peptide microarray) (MORC3 (CW); GST-tagged MORC3 (CW = CW-type Zn-finger), sheet Array Heatmap, each array performed twice): 0.487
Array Heatmap signal (histone peptide microarray) (PHF13; GST-tagged PHF13, sheet Array Heatmap, each array performed twice): 0.5985
Array Heatmap signal (histone peptide microarray) (PHF21A; GST-tagged PHF21A, sheet Array Heatmap, each array performed twice): 0.5152
Array Heatmap signal (histone peptide microarray) (PHF23; GST-tagged PHF23, sheet Array Heatmap, each array performed twice): 0.5075
Array Heatmap signal (histone peptide microarray) (PHF2; GST-tagged PHF2, sheet Array Heatmap, each array performed twice): 0.4774
Array Heatmap signal (histone peptide microarray) (PHF8; GST-tagged PHF8, sheet Array Heatmap, each array performed twice): 0.3925
Array Heatmap signal (histone peptide microarray) (PHRF1 (RP); GST-tagged PHRF1 (RP), sheet Array Heatmap, each array performed twice): 0.8706
Array Heatmap signal (histone peptide microarray) (RAG2; GST-tagged RAG2, sheet Array Heatmap, each array performed twice): 0.2663
Array Heatmap signal (histone peptide microarray) (SP140L; GST-tagged SP140L, sheet Array Heatmap, each array performed twice): 0.4262
Array Heatmap signal (histone peptide microarray) (TAF3; GST-tagged TAF3, sheet Array Heatmap, each array performed twice): 0.337
Array Heatmap signal (histone peptide microarray) (TRIM66 (PB); GST-tagged TRIM66 (PB = PHD + Bromodomain), sheet Array Heatmap, each array performed twice): 0.934

H3K14me2: H3 1-20 [Peptide H3K14me2]
Array Heatmap signal, AIRE (PP) (AIRE (PP)): 0.5905
Array Heatmap signal, BAZ2B (BAZ2B): 0.5017
Array Heatmap signal, BPTF (PB) (BPTF (PB)): 0.3583
Array Heatmap signal, CHD4 (PPCC) (CHD4 (PPCC)): 0.6389
Array Heatmap signal, CHD5 (PCC) (CHD5 (PCC)): 0.8497
Array Heatmap signal, CHD5 (PPCC) (CHD5 (PPCC)): 0.5851
Array Heatmap signal, DIDO1 (DIDO1): 0.7549
Array Heatmap signal, DPF2 (PPC2W2) (DPF2 (PPC2W2)): 0.7618
Array Heatmap signal, ING1 (ING1): 0.5677
Array Heatmap signal, ING2 (ING2): 0.6018
Array Heatmap signal, ING3 (ING3): 0.5043
Array Heatmap signal, ING4 (ING4): 0.4752
Array Heatmap signal, ING5 (ING5): 0.3792
Array Heatmap signal, KDM4C (TTP) (KDM4C (TTP)): 0.5414
Array Heatmap signal, KDM5A (1) (KDM5A (1)): 0.5072
Array Heatmap signal, KDM5A (3) (KDM5A (3)): 0.5469
Array Heatmap signal, KDM5B (1) (KDM5B (1)): 0.6811
Array Heatmap signal, KDM5B (3) (KDM5B (3)): 0.5212
Array Heatmap signal, KDM7A (KDM7A): 0.4126
Array Heatmap signal, MLL5 (MLL5): 0.5639
Array Heatmap signal, MORC3 (CW) (MORC3 (CW)): 0.4726
Array Heatmap signal, PHF13 (PHF13): 0.6476
Array Heatmap signal, PHF21A (PHF21A): 0.4799
Array Heatmap signal, PHF23 (PHF23): 0.5616
Array Heatmap signal, PHF2 (PHF2): 0.4838
Array Heatmap signal, PHF8 (PHF8): 0.3636
Array Heatmap signal, PHRF1 (RP) (PHRF1 (RP)): 0.7403
Array Heatmap signal, RAG2 (RAG2): 0.2574
Array Heatmap signal, SP140L (SP140L): 0.3561
Array Heatmap signal, TAF3 (TAF3): 0.2982
Array Heatmap signal, TRIM66 (PB) (TRIM66 (PB)): 0.6527

H3K18ac (1-25): H3 1-25
Array Heatmap signal, AIRE (PP) (AIRE (PP)): 0.502
Array Heatmap signal, BAZ2B (BAZ2B): 0.5309
Array Heatmap signal, BPTF (PB) (BPTF (PB)): 0.4168
Array Heatmap signal, CHD4 (PPCC) (CHD4 (PPCC)): 0.699
Array Heatmap signal, CHD5 (PCC) (CHD5 (PCC)): 0.844
Array Heatmap signal, CHD5 (PPCC) (CHD5 (PPCC)): 0.6616
Array Heatmap signal, DIDO1 (DIDO1): 0.8263
Array Heatmap signal, DPF2 (PPC2W2) (DPF2 (PPC2W2)): 0.8287
Array Heatmap signal, ING1 (ING1): 0.6071
Array Heatmap signal, ING2 (ING2): 0.65
Array Heatmap signal, ING3 (ING3): 0.5765
Array Heatmap signal, ING4 (ING4): 0.5434
Array Heatmap signal, ING5 (ING5): 0.4305
Array Heatmap signal, KDM4C (TTP) (KDM4C (TTP)): 0.575
Array Heatmap signal, KDM5A (1) (KDM5A (1)): 0.5632
Array Heatmap signal, KDM5A (3) (KDM5A (3)): 0.7204
Array Heatmap signal, KDM5B (1) (KDM5B (1)): 0.7576
Array Heatmap signal, KDM5B (3) (KDM5B (3)): 0.5812
Array Heatmap signal, KDM7A (KDM7A): 0.4088
Array Heatmap signal, MLL5 (MLL5): 0.6155
Array Heatmap signal, MORC3 (CW) (MORC3 (CW)): 0.6771
Array Heatmap signal, PHF13 (PHF13): 0.7117
Array Heatmap signal, PHF21A (PHF21A): 0.5491
Array Heatmap signal, PHF23 (PHF23): 0.5923
Array Heatmap signal, PHF2 (PHF2): 0.6849
Array Heatmap signal, PHF8 (PHF8): 0.4195
Array Heatmap signal, PHRF1 (RP) (PHRF1 (RP)): 0.8108
Array Heatmap signal, RAG2 (RAG2): 0.3351
Array Heatmap signal, SP140L (SP140L): 0.3993
Array Heatmap signal, TAF3 (TAF3): 0.3651
Array Heatmap signal, TRIM66 (PB) (TRIM66 (PB)): 0.788
